According to patent US20250214932A1, “T-TYPE CALCIUM CHANNEL MODULATORS COMPRISING AN AZASPIRONONANE CORE AND METHODS OF USE THEREOF” (Praxis Precision Medicines, Inc., priority 2022, published 2025):
Like-named read-outs stand apart in the source and are kept apart here.

Biological target: Human Cav3.1 (Homo sapiens (Human), UniProt O43497)
Assay: Human Cav3.1 calcium channel patch clamp assay (SyncroPatch 384PE, HEK-293 natClytin/TASK1+Cav3.1 cell line)
Type: cell-based
Method: Pulse generation and data collection were performed with PatchController384 V1.3.0 and DataController384 V1.2.1 (Nanion Technologies). Off-line analysis was performed using Excel and Graphpad Prism (V 8.4.2) with complete data files uploaded to Dotmatics. The access resistance and apparent membrane capacitance were estimated using built-in protocols. Current was recorded in whole cell configuration from a population of cells. The cells were lifted, triturated, and resuspended at 800,000 cells/ml. The cells were allowed to recover in the cell hotel prior to experimentation. Currents were recorded at room temperature. The external solution contained the following (in mM): NaCl 80, NMDG 60, KCl 4, MgCl2 1, CaCl2 6, glucose 5 and HEPES 10 (pH=7.4, Osmolarity ˜300 mOsm). The extracellular solution was used as the wash, reference and compound delivery solution. […] The compound plate was created at 2× concentrated in the extracellular solution. The compound was diluted to 1:2 when added to the recording well. The amount of DMSO in the extracellular solution was held constant at the level used for the highest tested concentration. For the voltage clamp experiments on Cav3.1, data were sampled at 10 KHz. After establishment of the seal and the passage in the whole cell configuration, the cells were held at −120 mV. Cav3.1 current was evoked using a 100 ms step to −20 mV (to measure resting state block), followed by a 1600 ms step to −65 mV and a second 100 ms step to −20 mV (to measure voltage dependent block). The voltage protocol was applied every 15 seconds in the absence and in the presence of the compounds under investigation. […] Current amplitude (pA) was measured in the peak 1 and 2. The average of last 3 sweeps of each liquid period (vehicle, compound under investigation, full block) was calculated. Nickel-sensitive current was used to calculate the % of inhibition in the presence of the compound under investigation.
Pulse generation and data collection were performed with PatchController384 V1.3.0 and DataController384 V1.2.1 (Nanion Technologies). Off-line analysis was performed using Excel and Graphpad Prism (V 8.4.2) with complete data files uploaded to Dotmatics. The access resistance and apparent membrane capacitance were estimated using built-in protocols. Current was recorded in whole cell configuration from a population of cells.
The cells were lifted, triturated, and resuspended at 800,000 cells/ml. The cells were allowed to recover in the cell hotel prior to experimentation. Currents were recorded at room temperature. The external solution contained the following (in mM): NaCl 80, NMDG 60, KCl 4, MgCl2 1, CaCl2 6, glucose 5 and HEPES 10 (pH=7.4, Osmolarity ˜300 mOsm). The extracellular solution was used as the wash, reference and compound delivery solution.
The compound plate was created at 2× concentrated in the extracellular solution. The compound was diluted to 1:2 when added to the recording well. The amount of DMSO in the extracellular solution was held constant at the level used for the highest tested concentration. For the voltage clamp experiments on Cav3.1, data were sampled at 10 KHz. After establishment of the seal and the passage in the whole cell configuration, the cells were held at −120 mV. Cav3.1 current was evoked using a 100 ms step to −20 mV (to measure resting state block), followed by a 1600 ms step to −65 mV and a second 100 ms step to −20 mV (to measure voltage dependent block). The voltage protocol was applied every 15 seconds in the absence and in the presence of the compounds under investigation. […] Current amplitude (pA) was measured in the peak 1 and 2. The average of last 3 sweeps of each liquid period (vehicle, compound under investigation, full block) was calculated. Nickel-sensitive current was used to calculate the % of inhibition in the presence of the compound under investigation.

[1] = patch clamp, HEK-293 natClytin/TASK1+Cav3.1 cells, class symbols, read-out: Human Cav3.1 IC50
[2] = voltage dependent block (VDB), read-out: Cav3.1 (VDB) IC50

Sequence of Human Cav3.1 (O43497 whole entry): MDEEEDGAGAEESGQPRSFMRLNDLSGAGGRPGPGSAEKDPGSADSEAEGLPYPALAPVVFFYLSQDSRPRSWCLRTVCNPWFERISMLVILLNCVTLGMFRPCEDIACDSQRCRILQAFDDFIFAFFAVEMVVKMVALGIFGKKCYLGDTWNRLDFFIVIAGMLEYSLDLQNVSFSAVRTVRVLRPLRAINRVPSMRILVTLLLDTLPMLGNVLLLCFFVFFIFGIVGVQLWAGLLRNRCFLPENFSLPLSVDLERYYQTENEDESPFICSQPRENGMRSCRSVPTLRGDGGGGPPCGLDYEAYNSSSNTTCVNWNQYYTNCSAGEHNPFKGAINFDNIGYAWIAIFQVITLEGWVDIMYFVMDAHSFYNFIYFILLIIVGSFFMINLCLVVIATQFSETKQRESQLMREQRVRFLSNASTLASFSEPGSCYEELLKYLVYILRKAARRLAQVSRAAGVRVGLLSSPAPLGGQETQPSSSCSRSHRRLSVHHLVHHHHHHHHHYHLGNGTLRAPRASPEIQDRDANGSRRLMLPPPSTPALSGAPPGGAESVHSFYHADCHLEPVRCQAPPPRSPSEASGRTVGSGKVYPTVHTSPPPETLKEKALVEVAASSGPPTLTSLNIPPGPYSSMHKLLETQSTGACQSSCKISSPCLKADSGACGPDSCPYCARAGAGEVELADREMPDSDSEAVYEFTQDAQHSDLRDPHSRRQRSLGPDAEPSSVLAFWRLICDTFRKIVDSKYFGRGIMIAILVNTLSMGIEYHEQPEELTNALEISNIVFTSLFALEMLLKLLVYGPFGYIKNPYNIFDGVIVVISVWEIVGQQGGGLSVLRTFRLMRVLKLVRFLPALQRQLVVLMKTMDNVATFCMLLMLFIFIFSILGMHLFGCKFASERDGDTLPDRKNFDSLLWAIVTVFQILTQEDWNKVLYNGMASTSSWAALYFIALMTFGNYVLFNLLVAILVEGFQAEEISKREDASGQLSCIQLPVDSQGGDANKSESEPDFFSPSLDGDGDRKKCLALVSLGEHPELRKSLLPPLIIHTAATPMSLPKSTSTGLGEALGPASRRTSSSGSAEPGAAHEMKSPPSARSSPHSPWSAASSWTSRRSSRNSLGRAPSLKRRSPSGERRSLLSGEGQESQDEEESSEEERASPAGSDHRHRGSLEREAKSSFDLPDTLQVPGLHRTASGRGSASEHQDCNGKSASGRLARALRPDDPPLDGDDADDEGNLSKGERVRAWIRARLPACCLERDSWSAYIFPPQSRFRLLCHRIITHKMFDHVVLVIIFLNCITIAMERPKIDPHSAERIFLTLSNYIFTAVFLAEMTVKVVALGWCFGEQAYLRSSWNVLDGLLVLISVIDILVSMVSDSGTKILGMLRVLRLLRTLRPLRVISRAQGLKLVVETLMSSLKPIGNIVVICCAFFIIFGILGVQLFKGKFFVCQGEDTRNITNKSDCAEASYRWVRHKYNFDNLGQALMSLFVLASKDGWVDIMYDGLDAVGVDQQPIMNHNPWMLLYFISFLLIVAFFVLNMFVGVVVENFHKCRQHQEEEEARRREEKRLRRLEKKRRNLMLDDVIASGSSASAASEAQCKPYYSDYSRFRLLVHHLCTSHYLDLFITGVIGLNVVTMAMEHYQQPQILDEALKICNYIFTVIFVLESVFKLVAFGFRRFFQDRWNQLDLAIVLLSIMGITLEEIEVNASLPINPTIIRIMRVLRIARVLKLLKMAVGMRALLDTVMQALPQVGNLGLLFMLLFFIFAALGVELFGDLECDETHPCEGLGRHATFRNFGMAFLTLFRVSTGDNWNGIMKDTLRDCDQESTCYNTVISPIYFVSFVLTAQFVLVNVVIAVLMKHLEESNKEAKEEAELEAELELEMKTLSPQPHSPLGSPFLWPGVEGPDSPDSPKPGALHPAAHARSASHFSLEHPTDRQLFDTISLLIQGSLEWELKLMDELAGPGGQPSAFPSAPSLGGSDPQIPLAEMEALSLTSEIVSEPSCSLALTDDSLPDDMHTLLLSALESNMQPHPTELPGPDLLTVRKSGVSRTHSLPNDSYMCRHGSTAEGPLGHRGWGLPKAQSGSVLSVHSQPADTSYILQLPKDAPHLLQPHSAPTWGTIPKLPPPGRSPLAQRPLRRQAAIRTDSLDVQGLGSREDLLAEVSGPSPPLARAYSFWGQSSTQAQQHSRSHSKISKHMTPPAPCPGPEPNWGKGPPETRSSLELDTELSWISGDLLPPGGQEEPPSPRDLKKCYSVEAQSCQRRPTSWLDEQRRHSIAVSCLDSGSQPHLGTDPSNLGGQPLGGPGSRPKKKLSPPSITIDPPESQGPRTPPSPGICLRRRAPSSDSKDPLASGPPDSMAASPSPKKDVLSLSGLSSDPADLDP

IC50 [1] | IC50 [2] | Structure (SMILES)
< 1000 nM | 254 nM | CC(C)(C)NC(=O)CN1CC2(CCC(C(=O)Nc3cc(F)cc(C(F)(F)F)c3)CC2)C1 [Example 4]
< 1000 nM | 78.5 nM | CC(C)(C)NC(=O)CN1CC2(CCC(C(=O)Nc3cc(F)cc(C(F)F)c3)CC2)C1 [Example 9]
< 1000 nM | 142 nM | CCC(C)(C)NC(=O)CN1CC2(CCC(C(=O)Nc3cc(F)cc(Cl)c3)CC2)C1 [Example 10, N-(3-chloro-5-fluorophenyl)-2-(2-oxo-2-(tert-pentylamino)ethyl)-2-azaspiro[3.5]nonane-7-carboxamide]
< 1000 nM | 239 nM | O=C(Nc1cc(F)cc(Cl)c1)C1CCC2(CC1)CN(CCC1CCC(F)(F)CC1)C2 [Example 13]
1000 to 10000 nM | – | COCCNC(=O)CN1CC2(CCC(C(=O)Nc3cc(F)cc(Cl)c3)CC2)C1 [Example 18]
< 1000 nM | 624 nM | O=C(Nc1cc(F)cc(Cl)c1)C1CCC2(CC1)CN(Cc1cccc(C(F)F)c1)C2 [Example 19]
< 1000 nM | < 78.2 nM | O=C(CN1CC2(CCC(C(=O)Nc3cc(F)cc(Cl)c3)CC2)C1)NC1CCCC1 [Example 21]
< 1000 nM | – | CC(C)(C)CCN1CC2(CCC(C(=O)Nc3cc(F)cc(Cl)c3)CC2)C1 [Example 22]
< 1000 nM | 467 nM | O=C(Nc1cc(F)cc(Cl)c1)C1CCC2(CC1)CN(Cc1cccc(Cl)c1)C2 [Example 23]
< 1000 nM | 890 nM | O=C(Nc1cc(F)cc(Cl)c1)C1CCC2(CC1)CN(Cc1cccc(C(F)(F)F)c1)C2 [Example 24]
< 1000 nM | 174 nM | CC(C)(C)NC(=O)CN1CC2(CCC(C(=O)Nc3cc(F)cc(Cl)c3)CC2)C1 [Example 25]

Continued, molecule first:

Structure (SMILES) | IC50 [1] | IC50 [2]
CC(C)(C)NC(=O)CN1CC2(CCC(C(=O)Nc3cc(Cl)cc(Cl)c3)CC2)C1 [Example 1, 2-(2-(tert-butylamino)-2-oxoethyl)-N-(3,5-dichlorophenyl)-2-azaspiro[3.5]nonane-7-carboxamide] | < 1000 nM | 176 nM
CC(C)(C)NC(=O)CN1CC2(CCC(C(=O)Nc3cccc(Cl)c3)CC2)C1 [Example 2] | < 1000 nM | –
CC(C)(C)NC(=O)CN1CC2(CCC(C(=O)Nc3ccc(Cl)cc3)CC2)C1 [Example 3] | < 1000 nM | 724 nM
Cc1cc(NC(=O)C2CCC3(CC2)CN(CC(=O)NC(C)(C)C)C3)nn1-c1ccccc1 [Example 6] | 1000 to 10000 nM | 2280 nM
CC(C)(C)NC(=O)CN1CC2(CCC(C(=O)Nc3cc(F)cc(OC(F)F)c3)CC2)C1 [Example 7] | < 1000 nM | 118 nM
CC(C)(C)NC(=O)CN1CC2(CCC(C(=O)NC34CCC(CC3)CC4)CC2)C1 [Example 8] | < 1000 nM | 663 nM
O=C(Nc1cc(F)cc(Cl)c1)C1CCC2(CC1)CN(Cc1ccc(Cl)cc1)C2 [Example 11] | 1000 to 10000 nM | –
CC1(NC(=O)CN2CC3(CCC(C(=O)Nc4cc(F)cc(Cl)c4)CC3)C2)CCC1 [Example 12] | < 1000 nM | 112 nM
O=C(Nc1cc(F)cc(Cl)c1)C1CCC2(CC1)CN(Cc1ccc(F)cc1)C2 [Example 14] | < 1000 nM | 612 nM
CC(C)(NC(=O)CN1CC2(CCC(C(=O)Nc3cc(F)cc(Cl)c3)CC2)C1)C(F)(F)F [Example 16] | < 1000 nM | 170 nM
O=C(Nc1cc(F)cc(Cl)c1)C1CCC2(CC1)CN(CCC1CCCC1)C2 [Example 17] | < 1000 nM | 182 nM
CC(C)(C)c1coc(CN2CC3(CCC(C(=O)Nc4cc(F)cc(Cl)c4)CC3)C2)n1 [Example 20] | < 1000 nM | 988 nM
CC(C)(C)NC(=O)CN1CC2(CCC(C(=O)NC34CC5CC(CC(C5)C3)C4)CC2)C1 [Example 26] | 1000 to 10000 nM | –
CCC(C)(C)NC(=O)CN1CC2(CCC(C(=O)Nc3cc(F)cc(C(F)F)c3)CC2)C1 [Example 27] | < 1000 nM | 182 nM
O=C(Nc1cc(F)cc(C(F)F)c1)C1CCC2(CC1)CN(CC1CCC(F)(F)CC1)C2 [Example 28] | < 1000 nM | 370 nM
